The values below are quoted from earlier work in US7682636B2 (Metaproteomics, LLC, priority 2001, dated 2010).

For one data set, the system named is COX-2 over COX-1. As to conditions: reported, background.
The subject of data set [1] is osteoarthritis of the knee in outpatients. As to conditions: 1500 mg glucosamine sulfate per day versus 1200 mg ibuprofen.

As to `CC(=O)Oc1ccccc1C(=O)O` [aspirin], in the data set on COX-2 over COX-1, the COX-2 specificity was 0.6. As to `N[C@H]1C(O)O[C@H](CO)[C@@H](O)[C@@H]1O.O=S(=O)(O)O` (stereo partly drawn) [glucosamine, glucosamine sulfate], the pain scores entry in data set [1] is reported as “difference between the two groups turned significantly in favor of glucosamine by week eight”. On to `CC(C)Cc1ccc(C(C)C(=O)O)cc1` (stereo not drawn) [ibuprofen], for which, in data set [1], the pain scores entry was “pain scores decreased faster during the first two weeks in the ibuprofen patients than in the glucosamine-treated patients”.
